Laboratory results as given in ChEMBL document CHEMBL3232945 (Eur J Med Chem, 2014).

Experiments:
[1] = system: Rattus norvegicus; experiment: Toxicity in […] normotensive Wistar rat assessed as mean arterial pressure at 40 mg/kg, ip after 60 mins (reference value: 95.07 +/- 1.973 mmHg); assay type: organism-based, Artery; set-up: dose 40 mg/kg, route intraperitoneal; conditions: in vivo, 1 h
[2] = system: Rattus norvegicus; experiment: Antihypertensive activity in Wistar rat assessed as mean arterial pressure at 40 mg/kg, ip measured immediately at 0 min (reference value: 194.08 +/- 1.962 mmHg); assay type: functional, Artery; conditions: route intraperitoneal
[3] = system: Rattus norvegicus; experiment: Antihypertensive activity in Wistar rat assessed as mean arterial pressure at 40 mg/kg, ip after 15 mins (reference value: 195.68 +/- 1.623 mmHg); assay type: functional, Artery; conditions: route intraperitoneal
[4] = system: Rattus norvegicus; experiment: Antihypertensive activity in Wistar rat assessed as mean arterial pressure at 40 mg/kg, ip after 30 mins (reference value: 194.72 +/- 1.002 mmHg); assay type: functional, Artery; conditions: route intraperitoneal
[5] = system: Rattus norvegicus; experiment: Antihypertensive activity in Wistar rat assessed as mean arterial pressure at 40 mg/kg, ip after 45 mins (reference value: 193.96 +/- 0.865 mmHg); assay type: functional, Artery; conditions: route intraperitoneal
[6] = system: Rattus norvegicus; experiment: Antihypertensive activity in Wistar rat assessed as mean arterial pressure at 40 mg/kg, ip after 60 mins (reference value: 195.11 +/- 0.531 mmHg); assay type: functional, Artery; conditions: route intraperitoneal
[7] = system: Rattus norvegicus; experiment: Toxicity in anesthetized-normotensive Wistar rat assessed as heart rate at 40 mg/kg, ip measured immediately at 0 min (reference value: 316.62 +/- 9.643 bpm); assay type: organism-based; set-up: dose 40 mg/kg, route intraperitoneal; conditions: in vivo, 0 h
[8] = system: Rattus norvegicus; experiment: Toxicity in anesthetized-normotensive Wistar rat assessed as heart rate at 40 mg/kg, ip after 15 mins (reference value: 313.93 +/- 9.912 bpm); assay type: organism-based; set-up: dose 40 mg/kg, route intraperitoneal; conditions: in vivo, 0.25 h
[9] = system: Rattus norvegicus; experiment: Toxicity in anesthetized-normotensive Wistar rat assessed as heart rate at 40 mg/kg, ip after 30 mins (reference value: 317.68 +/- 7.631 bpm); assay type: organism-based; set-up: dose 40 mg/kg, route intraperitoneal; conditions: in vivo, 0.5 h
[10] = system: Rattus norvegicus; experiment: Toxicity in anesthetized-normotensive Wistar rat assessed as heart rate at 40 mg/kg, ip after 45 mins (reference value: 316.82 +/- 8.452 bpm); assay type: organism-based; set-up: dose 40 mg/kg, route intraperitoneal; conditions: in vivo, 0.75 h
[11] = system: Rattus norvegicus; experiment: Toxicity in anesthetized-normotensive Wistar rat assessed as heart rate at 40 mg/kg, ip after 60 mins (reference value: 314.96 +/- 9.442 bpm); assay type: organism-based; set-up: dose 40 mg/kg, route intraperitoneal; conditions: in vivo, 1 h
[12] = system: Rattus norvegicus; experiment: Antiarrhythmic activity in barium chloride-induced Wistar rat assessed as increase in appearance time of arrhythmia at 40 mg/kg, ip administered 60 mins before barium chloride challenge (reference value: 129.4 +/- 4.373 sec); assay type: functional, Heart; conditions: route intraperitoneal
[13] = system: Rattus norvegicus; experiment: Antiarrhythmic activity in barium chloride-induced Wistar rat assessed as increase in mortality time at 40 mg/kg, ip administered 60 mins before barium chloride challenge (reference value: 682.8 +/- 9.656 secs); assay type: functional, Heart; conditions: route intraperitoneal
[14] = system: Rattus norvegicus; experiment: Toxicity in anaesthetized-Wistar rat assessed as P-Q ECG interval at 40 mg/kg, ip measured immediately at 0 min (reference value: 52.4 +/- 0.927 ms); assay type: organism-based; set-up: dose 40 mg/kg, route intraperitoneal; conditions: in vivo, 0 h
[15] = system: Rattus norvegicus; experiment: Toxicity in anaesthetized-Wistar rat assessed as QRS ECG interval at 40 mg/kg, ip measured immediately at 0 min (reference value: 19.6 +/- 1.142 ms); assay type: organism-based; set-up: dose 40 mg/kg, route intraperitoneal; conditions: in vivo, 0 h
[16] = system: Rattus norvegicus; experiment: Toxicity in anaesthetized-Wistar rat assessed as Q-T ECG interval at 40 mg/kg, ip measured immediately at 0 min (reference value: 78.8 +/- 1.030 ms); assay type: organism-based; set-up: dose 40 mg/kg, route intraperitoneal; conditions: in vivo, 0 h
[17] = system: Rattus norvegicus; experiment: Toxicity in anaesthetized-Wistar rat assessed as P-Q ECG interval at 40 mg/kg, ip after 15 mins (reference value: 52.2 +/- 1.158 ms); assay type: organism-based; set-up: dose 40 mg/kg, route intraperitoneal; conditions: in vivo, 0.25 h
[18] = system: Rattus norvegicus; experiment: Toxicity in anaesthetized-Wistar rat assessed as QRS ECG interval at 40 mg/kg, ip after 15 mins (reference value: 18.9 +/- 1.563 ms); assay type: organism-based; set-up: dose 40 mg/kg, route intraperitoneal; conditions: in vivo, 0.25 h
[19] = system: Rattus norvegicus; experiment: Toxicity in anaesthetized-Wistar rat assessed as Q-T ECG interval at 40 mg/kg, ip after 15 mins (reference value: 79.4 +/- 1.270 ms); assay type: organism-based; set-up: dose 40 mg/kg, route intraperitoneal; conditions: in vivo, 0.25 h
[20] = system: Rattus norvegicus; experiment: Toxicity in anaesthetized-Wistar rat assessed as P-Q ECG interval at 40 mg/kg, ip after 30 mins (reference value: […] +/- 0.927 ms); assay type: organism-based; set-up: dose 40 mg/kg, route intraperitoneal; conditions: in vivo, 0.5 h
[21] = system: Rattus norvegicus; experiment: Toxicity in anaesthetized-Wistar rat assessed as QRS ECG interval at 40 mg/kg, ip after 30 mins (reference value: 19.9 +/- 1.393 ms); assay type: organism-based; set-up: dose 40 mg/kg, route intraperitoneal; conditions: in vivo, 0.5 h
[22] = system: Rattus norvegicus; experiment: Toxicity in anaesthetized-Wistar rat assessed as Q-T ECG interval at 40 mg/kg, ip after 30 mins (reference value: 78.3 +/- 0.860 ms); assay type: organism-based; set-up: dose 40 mg/kg, route intraperitoneal; conditions: in vivo, 0.5 h
[23] = system: Rattus norvegicus; experiment: Toxicity in anaesthetized-Wistar rat assessed as P-Q ECG interval at 40 mg/kg, ip after 45 mins (reference value: 52.5 +/- 0.780 ms); assay type: organism-based; set-up: dose 40 mg/kg, route intraperitoneal; conditions: in vivo, 0.75 h
[24] = system: Rattus norvegicus; experiment: Toxicity in anaesthetized-Wistar rat assessed as QRS ECG interval at 40 mg/kg, ip after 45 mins (reference value: 20.2 +/- 1.348 ms); assay type: organism-based; set-up: dose 40 mg/kg, route intraperitoneal; conditions: in vivo, 0.75 h
[25] = system: Rattus norvegicus; experiment: Toxicity in anaesthetized-Wistar rat assessed as Q-T ECG interval at 40 mg/kg, ip after 45 mins (reference value: 78.8 +/- 0.927 ms); assay type: organism-based; set-up: dose 40 mg/kg, route intraperitoneal; conditions: in vivo, 0.75 h
[26] = system: Rattus norvegicus; experiment: Toxicity in anaesthetized-Wistar rat assessed as P-Q ECG interval at 40 mg/kg, ip after 60 mins (reference value: […] +/- 0.924 ms); assay type: organism-based; set-up: dose 40 mg/kg, route intraperitoneal; conditions: in vivo, 1 h
[27] = system: Rattus norvegicus; experiment: Toxicity in anaesthetized-Wistar rat assessed as QRS ECG interval at 40 mg/kg, ip after 60 mins (reference value: 19.3 +/- 0.873 ms); assay type: organism-based; set-up: dose 40 mg/kg, route intraperitoneal; conditions: in vivo, 1 h
[28] = system: Rattus norvegicus; experiment: Toxicity in anaesthetized-Wistar rat assessed as Q-T ECG interval at 40 mg/kg, ip after 60 mins (reference value: 79.7 +/- 0.965 ms); assay type: organism-based; set-up: dose 40 mg/kg, route intraperitoneal; conditions: in vivo, 1 h
[29] = system: Rattus norvegicus; experiment: Toxicity in […] normotensive Wistar rat assessed as mean arterial pressure at 40 mg/kg, ip measured immediately at 0 min (reference value: 94.21 +/- 2.065 mmHg); assay type: organism-based, Artery; set-up: dose 40 mg/kg, route intraperitoneal; conditions: in vivo, 0 h
[30] = system: Rattus norvegicus; experiment: Toxicity in […] normotensive Wistar rat assessed as mean arterial pressure at 40 mg/kg, ip after 15 mins (reference value: 93.81 +/- 1.543 mmHg); assay type: organism-based, Artery; set-up: dose 40 mg/kg, route intraperitoneal; conditions: in vivo, 0.25 h
[31] = system: Rattus norvegicus; experiment: Toxicity in […] normotensive Wistar rat assessed as mean arterial pressure at 40 mg/kg, ip after 30 mins (reference value: 94.68 +/- 1.213 mmHg); assay type: organism-based, Artery; set-up: dose 40 mg/kg, route intraperitoneal; conditions: in vivo, 0.5 h
[32] = system: Rattus norvegicus; experiment: Toxicity in […] normotensive Wistar rat assessed as mean arterial pressure at 40 mg/kg, ip after 45 mins (reference value: 94.83 +/- 0.943 mmHg); assay type: organism-based, Artery; set-up: dose 40 mg/kg, route intraperitoneal; conditions: in vivo, 0.75 h

Row | SMILES | Activity [1] [mmHg] | Activity [2] [mmHg] | Activity [3] [mmHg] | Activity [4] [mmHg] | Activity [5] [mmHg] | Activity [6] [mmHg] | Activity [7] [bpm] | Activity [8] [bpm] | Activity [9] [bpm] | Activity [10] [bpm] | Activity [11] [bpm] | Time [12] [s] | Time [13] [s] | Activity [14] [ms] | Activity [15] [min] | Activity [16] [min] | Activity [17] [min] | Activity [18] [min] | Activity [19] [min] | Activity [20] [min] | also measured
1 | O=C1/C(=C\c2ccccc2)S/C(=N\c2ccccc2)N1CC(O)CN1CCNCC1 (stereo unspecified) | 70.27 | 196.63 | 176.65 | 153.16 | 128.32 | 159.08 | 302.12 | 292.46 | 259.31 | 269.73 | 298.12 | 379.7 | 1380.5 | 54.3 | 20.8 | 80.2 | 54.7 | 21.6 | 80.6 | 56.4 | Activity [21]: 23.8 ms; Activity [22]: 81.8 min; Activity [23]: 56.9 min; Activity [24]: 23.7 min; Activity [25]: 82.4 min; Activity [26]: 55.1 min; Activity [27]: 22.4 min; Activity [28]: 82.1 ms; Activity [29]: 92.33 mmHg; Activity [30]: 78.76 mmHg; Activity [31]: 62.26 mmHg; Activity [32]: 62.53 mmHg
2 | CC(C)N1CCN(CC(O)CN2C(=O)/C(=C\c3ccccc3)S/C2=N\c2ccccc2)CC1 (stereo unspecified) | 76.27 | 193.37 | 185.53 | 161.56 | 146.51 | 160.84 | 310.34 | 298.46 | 272.41 | 253.26 | 302.92 | 354.8 | 1213.7 | 53.5 | 23.3 | 76 | 53.9 | 23.7 | 76.2 | 54.1 | Activity [21]: 24.1 ms; Activity [22]: 76.6 min; Activity [23]: 55.2 min; Activity [24]: 24.6 min; Activity [25]: 77.1 min; Activity [26]: 55.6 min; Activity [27]: 24.8 min; Activity [28]: 77.4 ms; Activity [29]: 92.09 mmHg; Activity [30]: 79.32 mmHg; Activity [31]: 62.08 mmHg; Activity [32]: 65.43 mmHg
3 | O=C1/C(=C\c2ccccc2)S/C(=N\c2ccccc2)N1CC(O)CN1CCN(c2ccccc2)CC1 (stereo unspecified) | 83.55 | 194.87 | 180.43 | 146.27 | 156.09 | 182.32 | 318.34 | 309.46 | 295.41 | 287.25 | 301.92 | 285.4 | 964.4 | 52.4 | 21.8 | 73.5 | 52.7 | 22.2 | 73.9 | 53.3 | Activity [21]: 23.5 ms; Activity [22]: 74.2 min; Activity [23]: 53.9 min; Activity [24]: 24.1 min; Activity [25]: 74.9 min; Activity [26]: 54.2 min; Activity [27]: 24.7 min; Activity [28]: 75 ms; Activity [29]: 94.56 mmHg; Activity [30]: 86.43 mmHg; Activity [31]: 76.84 mmHg; Activity [32]: 79.26 mmHg
